For the data set the following is noted: subdermal lactate 1.74 mM, ammonium 1.56 mM.

Structures are written as SMILES. Where two headings read alike, the source gives them in different places.

Experimental: Experiments were performed in specially-designed iontophoresis diffusion cells (Laboratory Glass Apparatus, Berkeley, Calif., USA) as represented in FIG. 7.
The anodal and cathodal chambers contacted the outer surface of the skin and contained the receptor (collection) media, respectively, 80 mM Tris/TrisHCl and 25 mM Tris+34 mM Mops (both buffered to pH 7.4).
Dermatomed pig-ear skin was clamped between the two halves of the iontophoresis cell and each chamber was filled with the appropriate solution.
The sub-dermal chamber was filled with the “donor solution which was perfused continuously at 2-3 mL/hour by means of a peristaltic pump.
A current of 0.4 mA (0.5 mA/cm^2) was passed for a total of 5 hours between the Ag/AgCl electrodes which were inserted into the anodal and cathodal chambers.
Every hour, the entire anode and cathode solutions were withdrawn and the chambers were refilled with fresh buffer.

Regarding `N` [Ammonium, ammonium], where the note is “3 h”, the “Deduced transport number (×100)” value is 1.36 ± 0.09 ×100 and the “K for analyte/internal standard couple, internal standard Na^+” value is 1.71 ± 0.09. Also, where the note is “5 h”, the “Deduced transport number (×100)” value is 1.44 ± 0.03 ×100 and the “K for analyte/internal standard couple, internal standard Na^+” value came out at 1.71 ± 0.01.

These data come from patent US20050074810A1, “Method for non-invasilvely determining the relative levels of two biological substances” (priority 2001, published 2005).
